Columns and labels:
MRSA LUH14616 [1] = test: In vitro killing assay on mid-log phase bacteria, MRSA LUH14616; format: cell-based, Staphylococcus aureus; details: for killing of MRSA LUH14616, in words: comparison among peptides tested, FIGS. 2-3
From the text: (§1) The clinical isolate of methicillin-resistant Staphylococcus aureus (MRSA), LUH14616 was kindly provided by Dr. S. Croes, Maastricht University Medical Center, Maastricht, Netherlands (see S.B.M.C. Croes, Microbiol. 2009; 9:229. doi: 10.1186/1471-2180-9-229) and that of mupirocine-resistant MRSA LUH15051 was a gift from Dr. M.E.O.C. Heck (Laboratory for Infectious Diseases and Screening, National Institute for Public Health and Environment, RIVM, Bilthoven, Netherlands).
(§2) Bacteria were stored at -80° C. until use. Inoculi of mid-log phase bacteria were prepared by incubating isolated MRSA colonies from blood agar plates in Tryptic Soy Broth (TSB) medium (Becton Dickinson, Le Pont de Clax, France) for 2.5 hours and then diluted to the concentration needed.
(§3) For the in vitro killing assay on mid-log phase bacteria, MRSA LUH14616 and MRSA LUH15051 were resuspended to a concentration of 1×10^6 bacteria/ml in PBS. Subsequently, 200 μl was added to a concentration range of peptides LL-37, P60.4Ac (OP-145) and P10 that were lyophilized in advance. Subsequently, the bacteria-peptide mixture was incubated for 1 hour at 37° C. To establish the killing capacity of these peptides, the suspensions were serially diluted and plated onto DST agar plates to measure viable CFU counts. IC90, IC99 and IC99.9 values are calculated by linear regression analysis.

MRSA LUH15051 [2] = test: In vitro killing assay on mid-log phase bacteria, mupirocine-resistant MRSA LUH15051; format: cell-based, Staphylococcus aureus; details: compared with LL-37 and P60.4Ac
From the text: as §1, §2, §3

S. aureus JAR = format: cell-based; details: JAR, 2 h
Description: S. aureus JAR is described in Campoccia et al. (Int. J. Artif. Organs, 2008 September; 31(9):841-7).
For the in vitro killing assay with P10 variants, S. aureus JAR ([…] CFU/ml) were incubated for 2 hours at 37° C. with various concentrations of the peptides in PBS or in PBS/human plasma (1/1, v/v). […] The LC99.9 is the average value of two independent experiments.

MRSA LUH14616 [3] = test: Burn wound infection model, thermally wounded human skin equivalents, MRSA LUH14616; format: cell-based, Staphylococcus aureus; details: compared with LL-37 and P60.4Ac, FIG. 4
Description: (§4) Human skin equivalents were prepared as described in El Ghalbzouri et al. (Lab. Invest. 2004 January; 84(1):102-12). In brief, 5×10^5 normal human keratinocytes were seeded onto fibroblast-populated rat-tail collagen matrices. The collagen matrices were prepared in advance by making a basal (0.1% acetic acid, 4 mg/ml collagen, Hank's Balanced Salt Solution (HBSS, 10×), 1 M NaOH and FCS) and a top collagen layer in which normal human fibroblasts were seeded (4 mg/ml collagen, 10×HBSS, 1 M NaOH, FCS and fibroblasts). Transwell filters with 3 μm pore size (Corning 3414, Costar) were used to culture the human skin equivalents. The collagen matrices were cultured in fibroblast medium for a week. The full thickness human skin equivalents were first cultured submerged in keratinocyte medium for 2 or 3 days at 37° C. and 7.3% CO2 and were then cultured in keratinocyte medium as described above, but with 1% FCS and supplemented with […] L-serine, 10 mM L-carnitine, 1 μM DL-α-tocopherol-acetate, 50 μM ascorbic acid, a lipid supplement that contained palmitic acid, linoleic acid and arachidonic acid in a 1:1:1 ratio and 2.4×10^−5 M bovine serum albumin. […]

MRSA LUH15051 [4] = test: Burn wound infection model, thermally wounded human skin equivalents, mupirocin-resistant MRSA LUH15051; format: cell-based, Staphylococcus aureus; details: compared with LL-37 and P60.4Ac, FIG. 5
Description: as §4

[5] = system: Staphylococcus epidermidis; test: Activity against Staphylococcus epidermidis; format: cell-based
[6] = system: (drug-resistant) Pseudomonas aeruginosa strains; test: Activity against Pseudomonas aeruginosa; format: cell-based; details: various (drug-resistant) strains
[7] = system: (drug-resistant) Acinetobacter baumannii strains; test: Activity against Acinetobacter baumannii; format: cell-based
mycobacteria = test: Activity against mycobacteria; format: cell-based
[8] = system: (fluconazole-resistant) Candida albicans; test: Activity against Candida albicans; format: cell-based
Aspergillus niger = test: Activity against Aspergillus niger; format: cell-based
[9] = system: methicillin-resistant S. aureus biofilm; test: Prevention of MRSA biofilm formation; format: cell-based; details: on plastic as well as biotic (wounded 3-D human skin model) surfaces
[10] = system: lipoteichoic acid (LTA), peptidoglycan (PG) and lipopolysaccharides (LPS); test: Endotoxin neutralization
From the text: The term “anti-inflammatory activity” of a polypeptide as used herein refers to inhibiting, reducing or preventing an inflammatory response in a subject that has been infected by microbes, e.g., bacteria, viruses, fungi, and/or parasites. Anti-inflammatory activity of polypeptides of the disclosure is achieved by inhibiting, reducing or preventing the release of pro-inflammatory microbial compounds, such as lipoteichoic acid (LTA), peptidoglycan (PG) and/or lipopolysaccharides (LPS). Anti-inflammatory activity can be measured by methods known in the art. One example of such method is a lipopolysaccharide neutralization assay. In this method, a polypeptide of the disclosure is mixed with 1 mg of lipopolysaccharides and incubated for 60 minutes. Thereafter, these mixtures were added to 4 times diluted fresh human blood and 18 hours thereafter, the level of cytokines (1L-8, 1L-12p40) in the blood sample are measured by ELISA.

Ac-LAREYKKIVEKLKRWLRQVLRTLR-NH2 (N-terminus and C-terminus assumed) [Peptide P10]
activity compared with P60.4Ac (MRSA LUH14616 [1]; MRSA LUH14616, surviving bacteria at similar concentration): approximately 100 times | IC99.9 (MRSA LUH14616 [1]; MRSA LUH14616 in PBS, 1 hour at 37° C., 99.9% Inhibitory Concentration, linear regression): 0.59 µM | effectiveness against MRSA bacteria in log phase, stationary bacteria and bacteria residing in biofilms (MRSA LUH14616 [1]; MRSA, strain not stated): highly effective | killing of MRSA LUH14616, in words (MRSA LUH14616 [1]): highest activity | killing of MRSA LUH14616, in words (MRSA LUH14616 [1]; listed as Peptide 10): more effective than LL-37 and P60.4Ac | killing of mupirocine-resistant MRSA, in words (MRSA LUH15051 [2]): more effective than LL-37 and P60.4Ac | LC99.9 (μM) (50% plasma) (S. aureus JAR): 102.4 µM | LC99.9 (μM) (PBS) (S. aureus JAR): 1.6 µM | eliminating MRSA from thermally wounded human skin equivalents, in words (MRSA LUH14616 [3]): more effective than LL-37 and P60.4Ac | eliminating mupirocine-resistant MRSA from thermally wounded human skin equivalents, in words (MRSA LUH15051 [4]): more effective than LL-37 and P60.4Ac | effectiveness against Staphylococcus epidermidis [5]: highly effective | effectiveness against Pseudomonas aeruginosa [6]: highly effective | effectiveness against Acinetobacter baumannii [7]: highly effective | effectiveness against mycobacteria (mycobacteria): highly effective | effectiveness against Candida albicans [8]: highly effective | effectiveness against Aspergillus niger (Aspergillus niger): highly effective | prevention of MRSA biofilm formation [9]: able to prevent | neutralization of endotoxin LTA, PG and LPS [10]: neutralizes
